Test results taken from patent publication US11439622B2 (OXFORD UNIVERSITY INNOVATION LIMITED, priority 2015, dated 2022).

Columns and labels:
Type in all cases: biochemical
[1] = molecular target: NDM-1 (New Delhi metallo-β-lactamase-1) (Klebsiella pneumoniae, UniProt C7C422); assay: Enzyme inhibition assay, NDM-1; conditions: for IC50: read-out: pIC50 NDM-1 (converted)
Procedure: (§1) The biological activity of the compounds of the present invention was tested using standard assay protocols.^7 The following representative enzymes NDM-1 (New Delhi metallo-β-lactamase-1), IMP-1 (Imipenemase-1) and VIM-2 (Veronese metallo-β-lactamase-2) were selected from different clinically relevant B1 metallo-β-lactamases.

[2] = molecular target: IMP-1 (Imipenemase-1) (Serratia marcescens, UniProt P52699); assay: Enzyme inhibition assay, IMP-1; conditions: read-out: pIC50 IMP-1 (converted)
Procedure: as §1

[3] = molecular target: VIM-2 (Veronese metallo-β-lactamase-2) (Escherichia coli, UniProt Q5U7L7); assay: Enzyme inhibition assay, VIM-2; conditions: read-out: pIC50 VIM-2 (converted)
Procedure: as §1

Chain of IMP-1 (Imipenemase-1) (P52699 19-246, looked up, species assumed): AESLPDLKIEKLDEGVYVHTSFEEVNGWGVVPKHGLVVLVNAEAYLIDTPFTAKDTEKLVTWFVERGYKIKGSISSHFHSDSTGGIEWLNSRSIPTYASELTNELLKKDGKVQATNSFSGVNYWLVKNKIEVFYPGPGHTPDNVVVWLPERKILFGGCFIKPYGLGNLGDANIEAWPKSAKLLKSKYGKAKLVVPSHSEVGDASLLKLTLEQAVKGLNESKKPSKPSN
Chain of NDM-1 (New Delhi metallo-β-lactamase-1) (C7C422 29-270, looked up, species assumed): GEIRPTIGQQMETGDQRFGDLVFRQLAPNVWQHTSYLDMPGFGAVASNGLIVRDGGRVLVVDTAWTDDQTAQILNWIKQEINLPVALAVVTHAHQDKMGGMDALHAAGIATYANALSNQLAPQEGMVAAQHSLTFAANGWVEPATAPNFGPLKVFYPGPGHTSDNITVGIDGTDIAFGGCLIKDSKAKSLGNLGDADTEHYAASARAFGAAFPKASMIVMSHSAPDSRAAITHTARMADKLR

IC50 [1] [nM] | IC50 [2] [nM] | IC50 [3] [nM] | pIC50 NDM-1 [1] | SMILES
50.1 | 7940 | 398 | – | Cc1cccc2c(-c3ccc(OC(F)(F)F)cc3)c(C(=O)O)[nH]c12 [Example 2, 7-methyl-3-(4-(trifluoromethoxy)phenyl)-1H-indole-2-carboxylic acid]
39.8 | 5010 | < 5.01 | – | Cc1cccc2c(-c3cc(Cl)cc(Cl)c3)c(C(=O)O)[nH]c12 [Example 3, 3-(3,5-dichlorophenyl)-7-methyl-1H-indole-2-carboxylicacid]
63.1 | 12600 | 631 | – | Cc1cccc2c(-c3ccncc3)c(C(=O)O)[nH]c12 [Example 4, 7-methyl-3-(pyridin-4-yl)-1H-indole-2-carboxylic acid]
31.6 | 7940 | 100 | – | Cc1cccc2c(-c3ccc(C(N)=O)cc3)c(C(=O)O)[nH]c12 [Example 5, 3-(4-carbamoylphenyl)-7-methyl-1H-indole-2-carboxylic acid]
39.8 | 7940 | 200 | – | Cc1cccc2c(-c3ccc(C#N)cc3)c(C(=O)O)[nH]c12 [Example 7, 3-(4-cyanophenyl)-7-methyl-1H-indole-2-carboxylic acid]
79.4 | 25100 | 251 | – | Cc1cccc2c(-c3ccc([N+](=O)[O-])cc3)c(C(=O)O)[nH]c12 [Example 8, 7-methyl-3-(4-nitrophenyl)-1H-indole-2-carboxylic acid]
50.1 | 7940 | 251 | – | COc1ccc(-c2c(C(=O)O)[nH]c3c(C)cccc23)cc1 [Example 9, 3-(4-methoxyphenyl)-7-methyl-1H-indole-2-carboxylic acid]
25.1 | 7940 | 200 | – | Cc1cccc2c(-c3ccc(Br)cc3)c(C(=O)O)[nH]c12 [Example 10, 3-(4-bromophenyl)-7-methyl-1H-indole-2-carboxylic acid]
31.6 | 12600 | 316 | – | Cc1cccc2c(-c3ccc(C(F)(F)F)cc3)c(C(=O)O)[nH]c12 [Example 11, 7-methyl-3-(4-(trifluoromethyl)phenyl)-1H-indole-2-carboxylic acid]
12.6 | 10000 | 1580 | – | Cc1cccc2c(-c3ccc(N4CCOCC4)cc3)c(C(=O)O)[nH]c12 [Example 13, 7-methyl-3-(4-morpholinophenyl)-1H-indole-2-carboxylic acid]
50.1 | – | 794 | – | Cc1cccc2c(-c3cccc(S(N)(=O)=O)c3)c(C(=O)O)[nH]c12 [Example 14, 7-methyl-3-(3-sulfamoylphenyl)-1H-indole-2-carboxylic acid]
79.4 | – | – | – | Cc1cccc2c(C3=CCCC3)c(C(=O)O)[nH]c12 [Example 27, 3-(cyclopent-1-en-1-yl)-7-methyl-1H-indole-2-carboxylic acid]
501 | – | – | – | Cc1cccc2c(-c3ccc(Cl)cc3)c(C(=O)O)n(C)c12 [Example 35, 3-(4-chlorophenyl)-1,7-dimethyl-indole-2-carboxylic acid]
39.8 | – | 158 | – | Cc1cc(C)cc(-c2c(C(=O)O)[nH]c3c(C)cccc23)c1 [Example 38, 3-(3,5-dimethylphenyl)-7-methyl-1H-indole-2-carboxylic acid]
126 | – | 126 | – | Cc1cccc2c(-c3ccccc3Cl)c(C(=O)O)[nH]c12 [Example 39, 3-(2-chlorophenyl)-7-methyl-1H-indole-2-carboxylic acid]
631 | – | – | – | Cc1cccc2c(I)c(C(=O)O)[nH]c12 [Example 46, 3-iodo-7-methyl-1H-indole-2-carboxylic acid]
251 | 2000 | – | – | O=C(O)c1[nH]c2c(C(F)(F)F)cccc2c1-c1ccc(F)cc1 [Example 51, 3-(4-fluorophenyl)-7-(trifluoromethyl)-1H-indole-2-carboxylic acid]
12.6 | 77.6 | – | – | CNC(=O)c1ccc(-c2c(C(=O)O)[nH]c3c(C(C)C)cccc23)cc1 [Example 87, 7-isopropyl-3-(4-(methylcarbamoyl)phenyl)-1H-indole-2-carboxylic acid]
26.9 | 21.4 | – | – | Cc1ccc(-c2c(C(=O)O)[nH]c3c(C(C)C)cccc23)s1 [Example 89, 7-isopropyl-3-(5-methylthiophen-2-yl)-1H-indole-2-carboxylic acid]
12.6 | 61.7 | – | – | CC(=O)NCc1ccc(-c2c(C(=O)O)[nH]c3c(C(C)C)cccc23)cc1 [Example 90, 3-(4-(acetamidomethyl)phenyl)-7-isopropyl-1H-indole-2-carboxylic acid]
53.7 | 79.4 | – | – | CN(C)C(=O)c1ccc(-c2c(C(=O)O)[nH]c3c(C(C)(C)C)cccc23)cc1 [Example 92, 7-(tert-butyl)-3-(4-(dimethylcarbamoyl)phenyl)-1H-indole-2-carboxylic acid]

IC50 [1] [nM] | IC50 [2] [nM] | IC50 [3] [nM] | pIC50 NDM-1 [1] | SMILES
79.4 | 85.1 | – | – | CN(C)S(=O)(=O)c1ccc(-c2c(C(=O)O)[nH]c3c(C(C)(C)C)cccc23)cc1 [Example 93, 7-(tert-butyl)-3-(4-(N,N-dimethylsulfamoyl)phenyl)-1H-indole-2-carboxylic acid]
2.69 | 24 | – | – | CC(C)c1cccc2c(-c3ccc(S(=O)(=O)N4CCOCC4)cc3)c(C(=O)O)[nH]c12 [Example 95, 7-isopropyl-3-(4-(morpholinosulfonyl)phenyl)-1H-indole-2-carboxylicacid]
3.98 | 7.76 | – | – | CC(C)c1cccc2c(-c3ccc(CNS(C)(=O)=O)cc3)c(C(=O)O)[nH]c12 [Example 96, 7-isopropyl-3-(4-(methylsulfonamidomethyl)phenyl)-1H-indole-2-carboxylic acid]
10 | 437 | – | – | CC(C)c1cccc2c(-c3ccc(CN(C)C)cc3)c(C(=O)O)[nH]c12 [Example 97, 3-(4-((dimethylamino)methyl)phenyl)-7-isopropyl-1H-indole-2-carboxylicacid]
6.76 | 219 | – | – | CC(C)c1cccc2c(-c3ccc(N4CCOCC4)nc3)c(C(=O)O)[nH]c12 [Example 98, 7-isopropyl-3-(6-morpholinopyridin-3-yl)-1H-indole-2-carboxylic acid]
0.851 | 8.32 | – | – | CC(C)c1cccc2c(-c3ccc(S(=O)(=O)N4CCCC4)cc3)c(C(=O)O)[nH]c12 [Example 99, 7-isopropyl-3-(4-(pyrrolidin-1-ylsulfonyl)phenyl)-1H-indole-2-carboxylic acid]
15.8 | 22.4 | – | – | CC(C)c1cccc2c(-c3ccc(Cn4cnnn4)cc3)c(C(=O)O)[nH]c12 [Example 100, 3-(4-((1H-tetrazol-1-yl)methyl)phenyl)-7-isopropyl-1H-indole-2-carboxylic acid]
15.8 | 1550 | – | – | CC(C)c1cccc2c(-c3ccc(C(=O)N(C)C)cc3Cl)c(C(=O)O)[nH]c12 [Example 101, 3-(2-chloro-4-(dimethylcarbamoyl)phenyl)-7-isopropyl-1H-indole-2-carboxylic acid]
3160 | – | – | – | O=C(O)c1[nH]c2ccccc2c1-c1ccccc1 [Example 109, 3-phenyl-1H-indole-2-carboxylic acid]
2000 | – | – | – | Cc1cccc2c(-c3ccc(F)cc3)c(C(=O)NNc3ccc(S(C)(=O)=O)cc3)[nH]c12 [Example 110, 3-(4-fluorophenyl)-7-methyl-N′-(4-(methylsulfonyl)phenyl)-1H-indole-2-carbohydrazide]
1580 | – | 7940 | – | O=C(O)c1[nH]c2c(F)cccc2c1-c1ccc(F)cc1 [Example 112, 7-fluoro-3-(4-fluorophenyl)-1H-indole-2-carboxylic acid]
7940 | – | – | – | CS(=O)(=O)c1ccc(NNC(=O)c2[nH]c3ccccc3c2-c2ccccc2)cc1 [Example 113, N′-(4-(methylsulfonyl)phenyl)-3-phenyl-1H-indole-2-carbohydrazide]
3160 | – | – | – | Cc1cccc2cc(C(=O)O)[nH]c12 [Example 114, 7-methyl-1H-indole-2-carboxylic acid]
1580 | – | – | – | Cc1cccc2c(Br)c(C(=O)O)[nH]c12 [Example 115, 3-bromo-7-methyl-1H-indole-2-carboxylic acid]
15800 | > 100000 | – | – | Cc1cccc2c(C3CCNCC3)c(C(=O)O)[nH]c12 [Example 118, 7-methyl-3-(piperidin-4-yl)-1H-indole-2-carboxylic acid]
6310 | – | 39800 | – | Cc1ccc2[nH]c(C(=O)O)c(-c3ccc(F)cc3)c2c1 [Example 121, 3-(4-fluorophenyl)-5-methyl-1H-indole-2-carboxylic acid]
– | > 20000 | > 20000 | – | CNC(=O)c1[nH]c2c(C(C)C)cccc2c1-c1ccc(S(=O)(=O)N(C)C)cc1 [Example 122, 3-(4-(N,N-dimethylsulfamoyl)phenyl)-7-isopropyl-N-methyl-1H-indole-2-carboxamide]
– | – | – | N.I. | CC(C)c1cccc2c(-c3ccc(S(=O)(=O)N(C)C)cc3)c(C(N)=O)[nH]c12 [Example 125, 3-(4-(N,N-dimethylsulfamoyl)phenyl)-7-isopropyl-1H-indole-2-carboxamide]
– | – | – | N.I. | CC(C)c1cccc2c(-c3ccc(S(=O)(=O)N(C)C)cc3)c(C#N)[nH]c12 [Example 126, 4-(2-cyano-7-isopropyl-1H-indol-3-yl)-N,N-dimethylbenzenesulfonamide]
214 | – | – | – | CC(C)c1cccc2c(-c3ccc(S(=O)(=O)N(C)C)cc3)c(C(=O)Nc3ncco3)[nH]c12 [Example 128, 3-(4-(N,N-dimethylsulfamoyl)phenyl)-7-isopropyl-N-(oxazol-2-yl)-1H-indole-2-carboxamide]
